Results published in patent US20110152313A1 (MACQUARIE UNIVERSITY, priority 2008, published 2011).

Key:
Assay in all cases: kinase binding screen (kinase-tagged T7 phage, qPCR), % Ctrl
[1] = biological target: T1, GAK (Homo sapiens, UniProt O14976)
T1 sequence (O14976 1-1311): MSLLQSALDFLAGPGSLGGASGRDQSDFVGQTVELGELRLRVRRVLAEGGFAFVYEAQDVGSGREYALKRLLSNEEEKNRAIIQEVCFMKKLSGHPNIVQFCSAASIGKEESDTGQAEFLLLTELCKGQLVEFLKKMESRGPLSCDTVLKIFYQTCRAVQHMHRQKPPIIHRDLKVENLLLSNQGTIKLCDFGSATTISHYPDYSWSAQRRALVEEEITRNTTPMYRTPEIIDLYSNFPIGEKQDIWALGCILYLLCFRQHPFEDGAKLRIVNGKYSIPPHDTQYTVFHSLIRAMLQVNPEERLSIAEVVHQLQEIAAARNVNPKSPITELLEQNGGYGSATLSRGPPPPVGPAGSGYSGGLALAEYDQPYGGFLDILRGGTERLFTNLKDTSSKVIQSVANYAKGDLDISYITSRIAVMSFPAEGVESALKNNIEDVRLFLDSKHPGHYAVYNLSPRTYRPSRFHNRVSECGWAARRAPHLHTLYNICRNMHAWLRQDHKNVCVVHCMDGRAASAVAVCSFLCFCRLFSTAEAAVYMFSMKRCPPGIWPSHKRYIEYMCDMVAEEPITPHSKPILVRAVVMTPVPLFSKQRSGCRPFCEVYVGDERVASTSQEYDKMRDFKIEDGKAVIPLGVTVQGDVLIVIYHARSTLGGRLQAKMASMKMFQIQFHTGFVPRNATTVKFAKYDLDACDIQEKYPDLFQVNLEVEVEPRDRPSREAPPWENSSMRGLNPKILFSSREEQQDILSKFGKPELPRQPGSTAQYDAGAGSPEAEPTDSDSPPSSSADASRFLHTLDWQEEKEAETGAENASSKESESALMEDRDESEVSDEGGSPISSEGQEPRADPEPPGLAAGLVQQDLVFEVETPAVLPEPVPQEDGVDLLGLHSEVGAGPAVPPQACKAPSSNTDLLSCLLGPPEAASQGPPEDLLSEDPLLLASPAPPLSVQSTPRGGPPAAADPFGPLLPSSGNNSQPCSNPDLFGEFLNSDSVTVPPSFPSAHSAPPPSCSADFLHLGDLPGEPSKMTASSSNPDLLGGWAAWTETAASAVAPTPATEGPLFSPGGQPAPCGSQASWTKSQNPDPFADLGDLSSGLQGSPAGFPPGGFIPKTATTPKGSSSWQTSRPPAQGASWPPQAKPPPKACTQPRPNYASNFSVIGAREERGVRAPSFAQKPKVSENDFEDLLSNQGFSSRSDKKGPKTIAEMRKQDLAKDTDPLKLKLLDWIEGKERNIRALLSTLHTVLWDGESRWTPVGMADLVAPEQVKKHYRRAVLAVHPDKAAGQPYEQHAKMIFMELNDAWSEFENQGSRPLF
Experimental: (§1) Percentage kinase inhibition at a set concentration was performed by methods well known in the prior art (Fabian, M. A. et al. Nat. Biotechnol. 2005, 23, 329; Karaman et al. (2008) Nat. Biotechnol. […], 26, 127). Briefly, kinase-tagged T7 phage strains were grown in parallel in 24-well blocks in an E. coli host derived from the BL21 strain. E. coli were grown to log-phase and infected with T7 phage from a frozen stock (multiplicity of infection=0.4) and incubated with shaking at 32° C. until lysis (90-150 minutes). The lysates were centrifuged (6,000×g) and filtered (0.2 μm) to remove cell debris. […] The liganded beads were blocked with excess biotin and washed with blocking buffer (SeaBlock (Pierce); 1% BSA, 0.05% Tween 20, 1 mM DTT) to remove unbound ligand and to reduce non-specific phage binding. […] Test compounds were prepared as 40× stocks in 100% DMSO and directly diluted into the assay. All reactions were performed in polypropylene 384-well plates in a final volume of 0.04 mL. […] The kinase concentration in the eluates was measured by qPCR.

[2] = biological target: T2, IRAK3 (Homo sapiens, UniProt Q9Y616)
T2 sequence (Q9Y616 1-596): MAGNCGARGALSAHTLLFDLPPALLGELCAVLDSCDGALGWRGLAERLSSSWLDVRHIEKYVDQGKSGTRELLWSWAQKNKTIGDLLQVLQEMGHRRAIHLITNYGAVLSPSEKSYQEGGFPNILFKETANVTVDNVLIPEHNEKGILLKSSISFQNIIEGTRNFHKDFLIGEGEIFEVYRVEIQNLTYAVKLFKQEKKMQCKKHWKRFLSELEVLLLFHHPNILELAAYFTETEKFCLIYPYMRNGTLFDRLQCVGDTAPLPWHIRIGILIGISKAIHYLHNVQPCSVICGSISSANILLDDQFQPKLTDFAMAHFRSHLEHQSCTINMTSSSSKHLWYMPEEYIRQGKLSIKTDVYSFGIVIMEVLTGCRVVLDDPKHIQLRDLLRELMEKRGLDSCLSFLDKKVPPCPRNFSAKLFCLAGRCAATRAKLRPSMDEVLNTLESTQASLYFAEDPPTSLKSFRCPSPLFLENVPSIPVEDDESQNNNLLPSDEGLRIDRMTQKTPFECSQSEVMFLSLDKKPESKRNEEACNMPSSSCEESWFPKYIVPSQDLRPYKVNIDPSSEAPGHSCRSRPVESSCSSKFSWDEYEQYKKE
Experimental: as §1

[3] = biological target: PIM2 (Homo sapiens, UniProt Q9P1W9)
Experimental: as §1

Sequence of PIM2 (Q9P1W9 whole entry, species assumed): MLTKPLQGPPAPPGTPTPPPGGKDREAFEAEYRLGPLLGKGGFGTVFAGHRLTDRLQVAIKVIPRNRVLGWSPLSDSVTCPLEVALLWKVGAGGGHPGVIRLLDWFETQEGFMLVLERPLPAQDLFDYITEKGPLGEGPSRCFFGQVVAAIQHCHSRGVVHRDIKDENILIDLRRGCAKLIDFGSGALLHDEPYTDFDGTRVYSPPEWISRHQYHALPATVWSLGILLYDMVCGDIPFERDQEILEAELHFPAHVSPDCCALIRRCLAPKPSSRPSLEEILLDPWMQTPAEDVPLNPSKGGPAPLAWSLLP

| remaining activity at 10 µM ([1]; 10 μM) [%] | remaining activity at 10 µM ([2]; 10 μM) [%] | remaining activity at 10 µM ([3]; 10 μM) [%] | SMILES | remaining activity at 1 µM [1] [%] | remaining activity at 1 µM [2] [%] | remaining activity at 1 µM [3] [%] |
| --- | --- | --- | --- | --- | --- | --- |
| – | – | – | Nc1nc2c(-c3cnc4ccccc4c3)nccc2[nH]1 [drawing 36, 4-(quinolin-3-yl)-1H-imidazo[4,5-c]pyridin-2-amine] | 91 | 56 | 100 |
| 19 | 51 | 21 | Nc1nc2c(-c3cc(Br)c(Br)[nH]3)nccc2[nH]1 [Ageladine A, ageladine A, reference compound] | 45 | 85 | 56 |
| – | – | – | Nc1nc2c(-c3ccccn3)nccc2[nH]1 [drawing 35, 4-(pyrid-2-yl)-1H-imidazo[4,5-c]pyridin-2-amine] | 54 | 88 | 100 |
